Laboratory results reported in US12144869B2, “Anti-ROR1 antibody conjugates, compositions comprising anti ROR1 antibody conjugates, and methods of making and using anti-ROR1 antibody conjugates” (Sutro Biopharma, Inc., priority 2022, dated 2024).
Read-outs that look alike come from different tables or passages of the source.

B1: SRP2196-C02 (antibody, V domains shown)
VH: EVQLVESGGGLVQPGGSLRLSCAASGFNITGYHIHWVRQAPGKGLEWVGFISPNSGWTYSADSVKGRFTISADTSKNTAYLQMNSLRAEDTAVYYCARDSRRYVRPFDYWGQGTLVTVSS
VL: QAVVTQESALTTSPGETVTLTCRSSTGAVTTSNYANWVQEKPDHLFTGLIGGTNKRAPGVPARFSGSLIGDKAALTITGAQTEDEAIYFCALWYSNLWVFGGGTKLTVL
B2: SRP2196-A03 (antibody, V domains shown)
VH: EVQLVESGGGLVQPGGSLRLSCAASGFNITQYHIHWVRQAPGKGLEWVGYISPNSGSTHEADSVKGRFTISADTSKNTAYLQMNSLRAEDTAVYYCARDSRRYVRGWDYWGQGTLVTVSS
VL: QAVVTQESALTTSPGETVTLTCRSSTGAVTTSNYANWVQEKPDHLFTGLIGGTNKRAPGVPARFSGSLIGDKAALTITGAQTEDEAIYFCALWYSNLWVFGGGTKLTVL
B3: SRP2196-C04 (antibody, V domains shown)
VH: EVQLVESGGGLVQPGGSLRLSCAASGFNITGYYIHWVRQAPGKGLEWVGFIAPLSGSTHNADSVKGRFTISADTSKNTAYLQMNSLRAEDTAVYYCARESRRYVNPWDYWGQGTLVTVSS
VL: QAVVTQESALTTSPGETVTLTCRSSTGAVTTSNYANWVQEKPDHLFTGLIGGTNKRAPGVPARFSGSLIGDKAALTITGAQTEDEAIYFCALWYSNLWVFGGGTKLTVL
B4: SRP2196-C03 (antibody, V domains shown)
VH: EVQLVESGGGLVQPGGSLRLSCAASGFNITGYYIHWVRQAPGKGLEWVGQISPNSGSTYSADSVKGRFTISADTSKNTAYLQMSSLRAEDTAVYYCARDSRRYVLSWDYWGQGTLVTVSS
VL: QAVVTQESALTTSPGETVTLTCRSSTGAVTTSNYANWVQEKPDHLFTGLIGGTNKRAPGVPARFSGSLIGDKAALTITGAQTEDEAIYFCALWYSNLWVFGGGTKLTVL
B5: 1987-C05 HC w/hSP34 LC3: HC of lead antibody 1987-C05 co-expressed with the LC of anti-CD3 antibody "hSP34-LC3" (antibody, V domains shown)
VH: EVQLVESGGGLVQPGGSLRLSCAASGFNISDYDIHWVRQAPGKGLEWVGGIDPDDGSTDYADSVKGRFTISADTSKNTAYLQMNSLRAEDTAVYYCARDYGVFDYWGQGTLVTVSS
VL: QTVVTQEPSLTVSPGGTVTLTCGSSTGAVTSGYYPNWFQQKPGQAPRGLIGGTKFLAPGTPARFSGSLLGGKAALTLSGVQPEDEAEYYCALWYSNRWVFGGGTQLTVTG
B6: 1987-C05 HC w/hOKT3 LC1: HC of lead antibody 1987-C05 co-expressed with the LC of anti-CD3 antibody "hOKT3-LC1" (antibody, V domains shown)
VH: EVQLVESGGGLVQPGGSLRLSCAASGFNISDYDIHWVRQAPGKGLEWVGGIDPDDGSTDYADSVKGRFTISADTSKNTAYLQMNSLRAEDTAVYYCARDYGVFDYWGQGTLVTVSS
VL: DIQMTQSPSSLSASVGDRVTITCSASSSVSYMNWYQQKPGKAPKRLIYDTSKLASGVPSRFSGSGSGTEYTLTISSLQPEDFATYYCQQWSSNPFTFGQGTKLEIK

Key:
ROR1 negative MCF7 cells = assay: In vitro cell killing of ROR1 ADCs on MCF7; assay type: cell-based; settings: for EC50: read-out: MCF-7 EC50
Description: (§1) Anti-ROR1 antibody was conjugated to different linker-warheads described herein at different DARs and the cell killing activity of the ADCs were evaluated on ROR1 positive Ntera-2 cell and ROR1 negative MCF7 cells.
(§2) Ntera-2 or MCF7 cell at 625 cells/25 μL were seeded in a 384-well flat bottom white polystyrene plate one day before the assay start. ADCs were formulated at 2× starting concentration. Filter sterilized samples were serial diluted (1:3) under sterile conditions and added onto cells in triplicates. Plates were cultured at 37° C. in a CO2 incubator for 120 hours. For cell viability measurement, 30 microliter of Cell Titer-Glo® reagent (Promega Corp, Madison, WI) was added into each well, and plates processed as per product instructions. Relative luminescence was measured on an ENVISION® plate reader (Perkin-Elmer; Waltham, MA). Relative luminescence readings were converted to % viability using untreated cells as controls. Data was fitted with non-linear regression analysis, using log (inhibitor) vs. response, variable slope, 4-parameter fit equation using GraphPad Prism.
(§3) To evaluate if the cell killing activity of anti-ROR1 ADCs is dependent on antibody binding to ROR1 expressed on cell surface, the same linker-warheads (LP3, LP4) were conjugated to an anti-GFP antibody and the cell killing of the anti-ROR1 and anti-GFP ADCs were evaluated in cell killing assays on ROR1 positive Ntera-2 cell and ROR1 negative MCF7 cells.

[1] = test system: ROR1 positive Ntera-2 cell; assay: In vitro cell killing of ROR1 ADCs on Ntera-2; assay type: cell-based; settings: for EC50: read-out: NTERA-2 EC50
Description: as §1, §2
as §3, with “cells. […]” for “cells.”

human ROR1-Fz = target: T1, human ROR1-Fz (Homo sapiens, UniProt Q01973); assay: Biacore off-rate and kinetic analysis, ROR1-Fz; assay type: binding; settings: Table 11; SP34 light chain
T1 construct: Frizzled (Fz, residues 165-305); His6 (C); purchased Acro Biosystems; host or cells: HEK293
Description: (§4) Anti-Fc polyclonal antibodies were immobilized onto a CMS chip (GE Life Sciences) using amine coupling chemistry (from Amine Coupling Kit, GE Life Sciences). The immobilization steps were carried out at a flow rate of 25 μL/min in 1×HBS-EP+buffer (GE Life Sciences; 10× Stock diluted before use). The sensor surfaces were activated for 7 min with a mixture of NHS (0.05 M) and EDC (0.2 M). The Anti-Fc antibodies were injected over all 4 flow cells at a concentration of 25 ug/ml in 10 mM sodium acetate, pH 4.5, for 7 min. Ethanolamine (1 M, pH 8.5) was injected for 7 min to block any remaining activated groups. An average of 12,000 response units (RU) of capture antibody was immobilized on each flow cell.
(§5) Off-rate and kinetic binding experiments were performed at 25° C. using 1×HBS-EP+buffer. Test and control antibodies were injected over the anti-Fc surface at concentrations of 5-10 μg/mL for 12 seconds at a flow rate of 10 μL/min on flow cells 2, 3 and 4, followed by a buffer wash for 30 seconds at the same flow rate. Kinetic characterization of antibody samples was carried out with a range of antigen concentrations from 1-100 nM and 1 injection of 0 nM antigen (for example, 100, 50, 25, 6.25, 1.56 and 0 nM). After capturing ligand (antibody) on the anti-Fc surface, the analyte (hROR1, Fz or Kr domains, Acro Biosystems, Delaware) was bound for 180 seconds, followed by a 600 second dissociation phase at a flow rate of 50 μL/min. Between each ligand capture and analyte binding cycle, regeneration was carried out using 2 injections of 10 mM Glycine pH 2.0 for 30 seconds at 30 μL/min, followed by a 30 second buffer wash step.
(§6) The data was fit with the Biacore T200 Evaluation software, using a 1-1 Langmuir binding model. KD (affinity, nM) was determined as a ratio of the kinetic rate constants calculated from the fits of the association and dissociation phases.
(§7) For anti-CD3-LC-containing IgGs that had detectable ROR1-binding in ELISA (1944-A07 and 1987-C05 variants), those antibodies were further tested for binding by surface plasmon resonance (SPR). Binding kinetics were assessed to the ROR1-frizzled domain (hROR1-Fz) or the ROR1-extracellular domain (hROR1) for 1944-A07 and 1987-C05 variants, respectively. Briefly, anti-ROR1 antibodies were captured via anti-human Fc polyclonal antibodies immobilized to a CM5 chip, and ROR1 recombinant proteins were flowed across the surface to assess binding kinetics. hROR1 or hROR1-Fz domain (Acro Biosystems, Delaware) binding was tested at 100, 50, 25, 6.25, 1.5625 nM. The data was fit with the Biacore™ T200 Evaluation software, using a 1-1 Langmuir binding model. KD (affinity, nM) was determined as a ratio of the kinetic rate constants calculated from the fits of the association and dissociation phases.

[2] = Differential scanning fluorimetry (protein thermal shift; TM1/TM2); assay type: physicochemical; settings: Table 11; melting temperature of the Fab domain
Description: A protein thermal shift assay was carried out by mixing the protein to be assayed with an environmentally sensitive dye (SYPRO Orange, Life Technologies Cat #S-6650) in a phosphate buffered solution (PBS), and monitoring the fluorescence of the mixture in real time as it underwent controlled thermal denaturation. Protein solutions between 0.2-2 mg/mL were mixed at a 1-1 volumetric ratio with a 1-500 PBS-diluted solution of SYPRO Orange (SYPRO Orange stock dye is 5000× in DMSO). 10 μL aliquots of the protein-dye mixture were dispensed in quadruplicate in a 384-well microplate (Bio-Rad Cat #MSP-3852), and the plate was sealed with an optically clear sealing film (Bio-Rad Cat #MSB-1001) and placed in a 384-well plate real-time thermocycler (Bio-Rad CFX384 Real Time System). The protein-dye mixture was heated from […], at increments of 0.1° C. per cycle (˜1.5° C. per minute), allowing 3 seconds of equilibration at each temperature before taking a fluorescence measurement. At the end of the experiment, the transition melting temperatures (TM1 and TM2) were determined using the Bio-Rad CFX manager software. TM1 represents the melting temperature of the Fc domain. TM2 represents the melting temperature of the Fab domain.
For the thermal stability of an antibody, the first melting peak (Tm1) coincides with the unfolding of the CH2 domain (FC stability), while the second melting peak (Tm2) occurs upon unfolding of the Fab domain.

[3] = target: T2, hROR1 (ROR1-extracellular domain) (Homo sapiens, UniProt Q01973); assay: Biacore off-rate and kinetic analysis, hROR1 extracellular domain; assay type: binding; settings: for KD: Table 7, sample ROR1 ECD, 1987-C05 HC with different LCs; for KD (SPR binding kinetics): hROR1, 1987-C05 variants
T2 construct: the ROR1-frizzled domain (hROR1-Fz) or the ROR1-extracellular domain (hROR1); purchased Acro Biosystems
Description: as §4, §5, §6, §7

[4] = Table 13, ROR1 negative MCF7, 120 hours
[5] = Table 13, ROR1 positive Ntera-2, 120 hours
[6] = Homo sapiens, Table 13, ROR1 negative MCF7, 120 hours
[7] = NTERA2, Table 13, ROR1 positive Ntera-2, 120 hours

Row | Molecule | MCF-7 Span (ROR1 negative MCF7 cells; [4]) [%] | NTERA-2 Span [1, 5] [%] | Biacore human ROR1-Fz ka (human ROR1-Fz) [M⁻¹ s⁻¹] | Biacore human ROR1-Fz kd (human ROR1-Fz) [s⁻¹] | TM2 (° C.) [2] [°C] | further results
1 | CC[C@@]1(O)C(=O)OCc2c1cc1n(c2=O)Cc2c-1nc1cc(F)c(C)c3c1c2[C@@H](NC(=O)CO)CC3 [Dxd] | 63 | 99 | – | – | – | EC50 (ROR1 negative MCF7 cells; [4]): 830 pM; EC50 [1, 5]: 260 pM
2 | CC[C@@]1(O)C(=O)OCc2c1cc1n(c2=O)Cc2c-1nc1cc(F)c(C)c3c1c2[C@@H](NC(=O)CN)CC3 [Gly-Exatecan] | 73 | 98 | – | – | – | EC50 (ROR1 negative MCF7 cells; [6]): 169 pM; EC50 [1, 7]: 6720 pM
3 | COc1cccc2c1C(=O)c1c(O)c3c(c(O)c1C2=O)C[C@@](O)(C(=O)NCCN)C[C@@H]3O[C@H]1C[C@H]2[C@H](O[C@@H]3[C@@H](OC)OCCN32)[C@H](C)O1 [PNU-EDA] | 85 | 99 | – | – | – | EC50 (ROR1 negative MCF7 cells; [6]): 300 pM; EC50 (ROR1 negative MCF7 cells; Homo sapiens, Table 15, ROR1 negative MCF7 cells, 120 hours, Cell Titer-Glo): 250 pM; MCF-7 Span (%) (ROR1 negative MCF7 cells; Table 15, ROR1 negative MCF7 cells, 120 hours, Cell Titer-Glo): 85%; EC50 [1, 7]: 26 pM; EC50 ([1]; NTERA2, Table 15, ROR1 positive Ntera-2 cells, 120 hours, Cell Titer-Glo): 27 pM; NTERA-2 Span (%) ([1]; Table 15, ROR1 positive Ntera-2 cells, 120 hours, Cell Titer-Glo): 98%
4 | B1 | – | – | 119000 | 0.00036 | 67 | –
5 | B2 | – | – | 169000 | 0.000275 | 70 | –
6 | B3 | – | – | 131000 | 0.000704 | 70 | –
7 | B4 | – | – | 143000 | 0.000461 | 69 | –
8 | B5 | – | – | – | – | – | KD [3]: Not detected; KD (SPR binding kinetics) [3]: no detectable binding
9 | B6 | – | – | – | – | – | KD [3]: Not detected; KD (SPR binding kinetics) [3]: no detectable binding
